Patent publication US20260165323A1, “USE OF STROBILURIN TYPE COMPOUNDS FOR COMBATING PHYTOPATHOGENIC FUNGI CONTAINING AN AMINO ACID SUBSTITUTION F129L IN THE MITOCHONDRIAL CYTOCHROME B PROTEIN CONFERRING RESISTANCE TO QO […]” (priority 2022, published 2026)

Key:
Assay type in all cases: in vivo
[1] = system: Phakopsora pachyrhizi containing the amino acid substitution F129L in the mitochondrial cytochrome b protein; experiment: Use Example 1: protective control of soybean rust on soybeans (PHAKPA P2); settings: inoculated 2 days after spraying, % diseased leaf area
Protocol: (§1) The compound was dissolved in a mixture of acetone and/or dimethylsulfoxide and the wetting agent/emulsifier Wettol, which is based on ethoxylated alkylphenoles, in a ratio (volume) solvent-emulsifier of 99 to 1 to give a total volume of 5 ml. Subsequently, water was added to total volume of 100 ml. This stock solution was then diluted with the described solvent-emulsifier-water mixture to the final concentration given in the tables below.
Use Example 1. Protective Control of Soybean Rust on Soybeans Caused by Phakopsora pachyrhizi (PHAKPA P2)
(§2) Leaves of potted soybean seedlings were sprayed to run-off with the previously described spray solution, containing the concentration of active ingredient or their mixture as described below. The plants were allowed to air-dry. The trial plants were cultivated for 2 days in a greenhouse chamber at 23-27° C. and a relative humidity between 60 and 80%. Then the plants were inoculated with spores of Phakopsora pachyrhizi. The strain used contains the amino acid substitution F129L in the mitochondrial cytochrome b protein conferring resistance to Qo inhibitors. To ensure the success the artificial inoculation, the plants were transferred to a humid chamber with a relative humidity of about 95% and 20 to 24° C. for 24 hr. The trial plants were cultivated for up to 14 days in a greenhouse chamber at 23 to 27° C. and a relative humidity between 60 and 80%. The extent of fungal attack on the leaves was visually assessed as % diseased leaf area, the disease level of untreated controls was usually higher than 85%.

[2] = system: Phakopsora pachyrhizi containing the amino acid substitution F129L in the mitochondrial cytochrome b protein; experiment: Use Example 2: protective control of soybean rust on soybeans (PHAKPA P6); settings: inoculated six days after spraying, % diseased leaf area
Protocol: as §1
Use Example 2. Protective Control of Soybean Rust on Soybeans Caused by Phakopsora Pachyrhizi (PHAKPA P6)
as §2, with “active ingredient as described” for “active ingredient or their mixture as described”, “cultivated for six days in” for “cultivated for 2 days in”, “95% and 23 to 27°” for “95% and 20 to 24°”, “23 to 27° C. for” for “20 to 24° C. for”

Puccinia recondita [3] = experiment: Use Example 3: curative control of brown rust on wheat (PUCCRT K4); settings: % diseased leaf area
Protocol: as §1
Use Example 3. Curative Control of Brown Rust on Wheat Caused by Puccinia recondita (PUCCRT K4)
The first two developed leaves of potted wheat seedling were dusted with spores of Puccinia recondita. To ensure the success the artificial inoculation, the plants were transferred to a humid chamber without light and a relative humidity of 95 to 99% and 20 to 24° C. for 24 h. The next 3 days the plants were cultivated in a greenhouse chamber at 20 to 24° C. and a relative humidity between 65 and 70%. Then the plants were sprayed to run-off with previously described spray solution, containing the concentration of active ingredient or their mixture as described below. The plants were allowed to air-dry. Then the trial plants were cultivated for 5 to 7 days in a greenhouse chamber at 20 to 24° C. and a relative humidity between 65 and 70%. The extent of fungal attack on the leaves was visually assessed as % diseased leaf area, the disease level of untreated controls was usually between 80 and 100%.

Puccinia recondita [4] = experiment: Use Example 4: preventative control of brown rust on wheat (PUCCRT P7); settings: inoculated seven days after spraying, % diseased leaf area
Protocol: as §1
Use Example 4. Preventative Control of Brown Rust on Wheat Caused by Puccinia recondita (PUCCRT P7)
The first two developed leaves of potted wheat seedling were sprayed to run-off with previously described spray solution, containing the concentration of active ingredient or their mixture as described below. Seven days later the plants were dusted with spores of Puccinia recondita. To ensure the success of the artificial inoculation, the plants were transferred to a humid chamber without light and a relative humidity of 95 to 99% and 20 to 24° C. for 24 h. Then the trial plants were cultivated for 9 to 11 days in a greenhouse chamber at 20 to 24° C. and a relative humidity between 65 and 70%. The extent of fungal attack on the leaves was visually assessed as % diseased leaf area, the disease level of untreated controls was usually between 80 and 100%.

SMILES | % PHAKPA (F129L) Disease level P2 at 4 ppm [1] | % PHAKPA (F129L) Disease level P2 at 16 ppm [1] | % PHAKPA (F129L) Disease level P6 at 4 ppm [2] | % PHAKPA (F129L) Disease level P6 at 16 ppm [2] | % PUCCRT Disease level K4 at 4 ppm (Puccinia recondita [3]) | % PUCCRT Disease level K4 at 16 ppm (Puccinia recondita [3]) | % PUCCRT Disease level P7 at 4 ppm (Puccinia recondita [4]) | % PUCCRT Disease level P7 at 16 ppm (Puccinia recondita [4])
CNC(=O)/C(=N/OC)c1cccc(Cl)c1CO/N=C(\COC)c1ccc(F)cc1 [compound 2, (2E)-2-[3-chloro-2-[[(Z)-[1-(4-fluorophenyl)-2-methoxyethylidene]amino]oxymethyl]phenyl]-2-methoxyimino-N-methyl-acetamide] | 16% | 0% | 0% | 1% | 63% | 4% | 15% | 5%
CNC(=O)/C(=N/OC)c1cccc(Cl)c1CO/N=C(/C#Cc1ccc(F)cc1)COC [compound 6, (2E)-2-[3-chloro-2-[[(Z)-[3-(4-fluorophenyl)-1-(methoxymethyl)prop-2-ynylidene]amino]oxymethyl]phenyl]-2-methoxyimino-N-methyl-acetamide] | 8% | 0% | 28% | 5% | 38% | 2% | 8% | 0%
CCOC/C(=N\OCc1c(Cl)cccc1/C(=N\OC)C(=O)OC)c1ccc(F)cc1 [compound 24] | – | – | – | – | 83% | 82% | 68% | 48%
CCOC/C(=N\OCc1c(Cl)cccc1/C(=N\OC)C(=O)OC)c1cccc(F)c1 [compound 26] | – | – | – | – | 82% | 82% | 62% | 21%
CCOC/C(=N\OCc1c(Cl)cccc1/C(=N\OC)C(=O)NC)c1ccccc1Cl [compound 51] | – | – | – | – | 72% | 68% | 75% | 53%
COC/C(=N\OCc1c(Cl)cccc1/C(=N\OC)C(=O)OC)c1ccc(F)c(F)c1 [compound 90] | 11% | 0% | 42% | 13% | – | – | 32% | 10%
CNC(=O)/C(=N/OC)c1cccc(Cl)c1CO/N=C(\COC)c1ccc(F)cc1Cl [compound 94] | 29% | 5% | 43% | 11% | – | – | 57% | 26%
COC/C(=N\OCc1c(Cl)cccc1/C(=N\OC)C(=O)OC)c1ccc(F)c(F)c1F [compound 98] | 72% | 15% | 72% | 31% | – | – | 50% | 12%
COC/C(=N\OCc1c(Cl)cccc1/C(=N\OC)C(=O)OC)c1c(F)ccc(F)c1F [compound 111] | 39% | 5% | 42% | 15% | – | – | 30% | 17%
CNC(=O)/C(=N/OC)c1cccc(Cl)c1CO/N=C(\COC)c1c(F)ccc(F)c1F [compound 112] | 8% | 0% | 21% | 0% | – | – | 43% | 6%
CO/C=C(/C(=O)OC)c1cccc(Cl)c1CO/N=C(\COC)c1c(F)cc(Cl)cc1F [compound 115] | 8% | 0% | 9% | 1% | – | – | 57% | 14%
COC/C(=N\OCc1c(Cl)cccc1/C(=N\OC)C(=O)OC)c1cccc(OC)c1 [compound 120] | 67% | 11% | 81% | 45% | – | – | 22% | 2%
CNC(=O)/C(=N/OC)c1cccc(Cl)c1CO/N=C(\COC)c1ccccc1C [compound 122] | 82% | 20% | 76% | 30% | – | – | 45% | 20%
CO/C=C(/C(=O)OC)c1cccc(F)c1CO/N=C(\COC)c1c(F)cc(F)cc1F [compound 125] | – | – | – | – | 68% | 7% | – | –
CNC(=O)/C(=N/OC)c1cccc(Cl)c1CO/N=C(\COC)c1cccc(C)c1 [compound 127] | 21% | 0% | 18% | 4% | 58% | 1% | – | –
CO/C=C(/C(=O)OC)c1cccc(Cl)c1CO/N=C(\COC)c1cccc(C)c1 [compound 128] | 4% | 0% | 4% | 1% | 20% | 1% | – | –
